According to PMC12409883 (Journal of Medicinal Chemistry, 2025):

Assays:
RPE65 = RPE65 (Bos taurus, UniProt Q28175); assay: In vitro RPE65 activity assay; conditions: for IC50: IC50 toward RPE65, bovine RPE microsomes
[1] = system: visual chromophore regeneration in BALB/cJ mice; assay: Extent and duration of effects on visual chromophore recovery after photobleach; conditions: 10 mg/kg single IP, photobleach 30 min after dose, 2 h dark recovery
[2] = Shelf life of ester-based VCMs; assay type: physicochemical; conditions: Figure S1
porcine liver esterase = assay: In vitro esterase susceptibility assay; conditions: for initial rate of VCM loss: 37 °C, followed for 60 min
BALBc/J mice = assay: In vivo scotopic ERG 2 h after photobleach, oral gavage dosing; set-up: species or system mouse; conditions: 10 mg/kg oral gavage, photobleach after 30 min, 2 h in the dark
BALB/cJ mice [3] = assay: Light-induced retinal damage in BALB/cJ mice: SLO and OCT imaging; assay type: in vivo, mouse
BALB/cJ mice [4] = assay: Light-induced retinal damage in BALB/cJ mice: histology, ONL nuclei counts; conditions: 10 mg/kg single IP, 15,000 lx for 8 h, p < 0.0001
Abca4–/–Rdh8–/– mice [5] = assay: Photic retinal damage in Abca4–/–Rdh8–/– mice; assay type: in vivo, mouse
Abca4–/–Rdh8–/– mice [6] = assay: Photic retinal damage in Abca4–/–Rdh8–/– mice: scotopic; assay type: in vivo, mouse; conditions: 1 week after light damage
Abca4–/–Rdh8–/– mice [7] = assay: Photic retinal damage in Abca4–/–Rdh8–/– mice: photopic ERG; assay type: in vivo, mouse; conditions: IP and oral administration, 1 week after light damage
[8] = 10 mg/kg single IP, 15,000 lx for 8 h, assessed after 7 days

Chain of RPE65 (Q28175 whole entry): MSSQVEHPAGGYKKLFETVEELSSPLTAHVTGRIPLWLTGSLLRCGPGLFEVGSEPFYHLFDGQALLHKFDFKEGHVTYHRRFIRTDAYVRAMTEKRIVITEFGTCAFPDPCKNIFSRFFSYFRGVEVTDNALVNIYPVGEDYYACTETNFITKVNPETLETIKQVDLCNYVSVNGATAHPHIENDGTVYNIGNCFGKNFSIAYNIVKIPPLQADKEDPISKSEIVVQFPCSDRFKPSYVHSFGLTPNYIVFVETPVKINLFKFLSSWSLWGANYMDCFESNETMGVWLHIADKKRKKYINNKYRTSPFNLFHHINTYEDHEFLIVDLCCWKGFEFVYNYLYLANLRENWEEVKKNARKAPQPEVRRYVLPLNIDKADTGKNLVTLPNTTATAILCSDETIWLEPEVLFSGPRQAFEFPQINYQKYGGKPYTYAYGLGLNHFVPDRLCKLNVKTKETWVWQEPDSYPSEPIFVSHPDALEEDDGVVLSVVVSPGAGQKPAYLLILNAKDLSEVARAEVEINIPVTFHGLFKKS

SMILES: NCCC(O)c1cccc(O)c1 (stereo not shown) [Compound 4, 3-(3-Amino-1-hydroxypropyl)phenol]
- RPE65 inhibition in vitro (RPE65; bovine RPE microsomes): did not significantly inhibit RPE65
- ocular retinoid pattern (atREs and 11cRAL) after photobleach [1]: led to the same pattern as vehicle treatment

SMILES: NCCC(O)c1cccc(OC(=O)C2CCCCC2)c1.O=CO (stereo not shown) [Compound 5, 3-(3-Amino-1-hydroxypropyl)phenyl cyclohexanecarboxylate formate]
- stability to nonenzymatic aminolysis [2]: substantially less stable compared to 6 and 7
- initial rate of VCM loss (porcine liver esterase): 5.611 % compound/min
- IC50 (RPE65): 164 ± 27 nM
- ocular retinoid pattern (atREs and 11cRAL) after photobleach [1]: led to the same pattern as vehicle treatment

SMILES: CCC(CC)C(=O)Oc1cccc(C(O)CCN)c1.O=CO (stereo not shown) [Compound 6, 3-(3-Amino-1-hydroxypropyl)phenyl 2-ethylbutanoate formate]
- scotopic ERG a-wave after oral dosing (BALBc/J mice): suppressed significantly the scotopic ERG a-wave
- scotopic ERG b-wave after oral dosing (BALBc/J mice): only 7 suppressed also the b-wave amplitude
- OCT: ONL thickness (BALB/cJ mice [3]; [8]): preserved the thickness of the ONL
- SLO retinal autofluorescent puncta (BALB/cJ mice [3]; [8]): rare autofluorescent puncta
- efficacy of a single systemic administration in the prevention of photic retinal damage (BALB/cJ mice [3]; 10 mg/kg single IP, albino BALB/cJ mice): equal to that of emixustat
- slower initial rate of hydrolysis compared with compound 5 (porcine liver esterase): ~4 fold
- initial rate of VCM loss (porcine liver esterase): 1.512 % compound/min
- IC50 (RPE65): 69 ± 15 nM
- Spider plot of ONL thickness from H&E sections, ANOVA (BALB/cJ mice [4]): significant effect
- ocular retinoid pattern (atREs and 11cRAL) after photobleach [1]: reproduced the retinoid pattern observed after emixustat treatment

SMILES: CCCC(CCC)C(=O)Oc1cccc(C(O)CCN)c1.O=CO (stereo not shown) [Compound 7, 3-(3-Amino-1-hydroxypropyl)phenyl 2-propylpentanoate formate]
- scotopic ERG a-wave after oral dosing (BALBc/J mice): suppressed significantly the scotopic ERG a-wave
- OCT: ONL, oral (Abca4–/–Rdh8–/– mice [5]; oral 10, 20, 50 mg/kg, 10,000 lx for 30 min, assessed after 1 week): dose-dependent preservation of the ONL layer
- SLO autofluorescent signals, oral (Abca4–/–Rdh8–/– mice [5]; oral 10, 20 and 50 mg/kg, 10,000 lx for 30 min, assessed after 1 week): did not afford complete protection
- oral dose from which the effect on ONL thickness was significant (Abca4–/–Rdh8–/– mice [5]; oral administration, OCT ONL thickness): ≥ 20 mg/kg
- OCT: ONL, IP (Abca4–/–Rdh8–/– mice [5]; single IP dose, 10,000 lx for 30 min, assessed after 1 week): the ONL remained intact
- rod ERG responses, IP (Abca4–/–Rdh8–/– mice [6]; IP administration): had a significant effect in maintaining rod function
- rod ERG b-wave amplitudes, oral (Abca4–/–Rdh8–/– mice [6]; oral 10, 20, 50 mg/kg): dose-dependent preservation of rod ERG b-wave amplitudes
- S-cone and M-cone b-wave amplitudes (Abca4–/–Rdh8–/– mice [7]): A similar trend was observed
- slower initial rate of hydrolysis compared with compound 5 (porcine liver esterase): ~13 fold
- initial rate of VCM loss (porcine liver esterase): 0.440 % compound/min
- IC50 (RPE65): 102 ± 12 nM
- ocular retinoid pattern (atREs and 11cRAL) after photobleach [1]: reproduced the retinoid pattern observed after emixustat treatment
